According to patent publication US20140178315A1, “Topical Compositions Comprising Ionic Fluids” (Arch Chemicals, Inc., priority 2012, published 2014):

Conditions: 3 g salt added to 21 g anhydrous betaine glycolate ionic fluid; heated at 105° C. for 2 hours; remained a viscous fluid after cooling to room temperature

With C[N+](C)(C)CC(=O)O.O=c1cc(CO)occ1[O-] [betaine kojiate] the “Solubility of betaine kojiate in betaine glycolate ionic fluid (appearance of the mixture)” value was “formed a clear fluid”.
